According to article PMC11672637, “7-O-Carboxylic Acid-Substituted 3-O-Alkyl Difluoroquercetin; An Aztreonam-Potentiating Agent Against Carbapenemase-Producing Pseudomonas aeruginosa Through Simultaneous Inhibition of Metallo-β-Lactamase and Efflux Pump” (Antibiotics, 2024):
Values after ≈ are worked out from the molar mass of the structure shown. Like-named read-outs stand apart in the source and are kept apart here.

Key:
[1] = test system: ATM-Resistant CPPA (n = 15); assay: MIC distribution over clinical isolates; type: cell-based, P. aeruginosa; settings: Pseudomonas aeruginosa; for inhibition at 8 µg/mL: read-out: Cumulative % inhibition by ATM, 5 at 8 mg/L; for inhibition at 16 µg/mL: read-out: Cumulative % inhibition by ATM, 5 at 16 mg/L; for inhibition at 32 µg/mL: read-out: Cumulative % inhibition by ATM, 5 at 32 mg/L; for inhibition at 64 µg/mL: read-out: Cumulative % inhibition by ATM, 5 at 64 mg/L
[2] = test system: ATM-Susceptible CPPA (n = 11); assay: MIC distribution over clinical isolates; type: cell-based, P. aeruginosa; settings: Pseudomonas aeruginosa
[3] = test system: wild-type P. aeruginosa (ATCC 27853); assay: Time–kill assay; type: cell-based; settings: for Log CFU/mL, ATM + 5: 24 h
Method: Aliquots (50 μL) were taken from the incubation mixture at regular time intervals (t = 0, 3, 6, and 24 h), serially diluted in 0.85% NaCl solution, and plated on BAP. Bacterial colonies were counted, and the data are presented as the means of at least three independent experiments.

[4] = In vivo pharmacokinetic study; set-up: species or system Sprague–Dawley (SD) rats; settings: rat; for Vd: iv, 5 mg/kg; for MRT last: read-out: MRT0–last; for MRT inf: read-out: MRT0–∞
Method: After administration of compound 5 (5 mg/kg intravenously and 10 mg/kg orally) to specific pathogen-free (SPF) male Sprague–Dawley (SD) rats (Medicilon Colony: 999M-017), samples of serum were taken at eight different time points (0.083, 0.25, 0.5, 1, 2, 4, 8, and 24 h). Analysis of the samples were performed by liquid chromatography with tandem mass spectrometry (LC-MS/MS). A standard set of parameters were calculated using non-compartmental analysis modules in FDA certified pharmacokinetic program Phoenix WinNonlin 7.0 (Pharsight, Mountain View, CA, USA).

[5] = read-out: MIC50 of ATM, 5 at 1 mg/L
[6] = read-out: MIC50 of ATM, 5 at 2 mg/L
[7] = read-out: MIC50 of ATM, 5 at 4 mg/L
[8] = read-out: MIC50 of ATM, 5 at 8 mg/L
[9] = read-out: MIC50 of ATM, 5 at 16 mg/L
[10] = read-out: MIC50 of ATM, 5 at 32 mg/L
[11] = read-out: MIC50 of ATM, 5 at 64 mg/L
[12] = read-out: MIC90 of ATM, 5 at 1 mg/L
[13] = read-out: MIC90 of ATM, 5 at 2 mg/L
[14] = read-out: MIC90 of ATM, 5 at 4 mg/L
[15] = read-out: MIC90 of ATM, 5 at 8 mg/L
[16] = read-out: MIC90 of ATM, 5 at 16 mg/L
[17] = read-out: MIC90 of ATM, 5 at 32 mg/L
[18] = read-out: MIC90 of ATM, 5 at 64 mg/L
[19] = male, Sprague-Dawley, serum, Intravenous (5 mg/kg)
[20] = male, Sprague-Dawley, serum, Oral (10 mg/kg)

Structure (SMILES): CC(C)(C)CCOc1c(-c2ccc(F)c(F)c2)oc2cc(OCC(=O)O)cc(O)c2c1=O [Compound 5, 2-((2-(3,4-Difluorophenyl)-3-(3,3-dimethylbutoxy)-5-hydroxy-4-oxo-4H-chromen-7-yl)oxy)acetic Acid]
- inhibition at 8 µg/mL ([1]; ATM 4 mg/L): 47%
- inhibition at 8 µg/mL ([1]; ATM 8 mg/L): 80%
- inhibition at 8 µg/mL ([1]; ATM 16 mg/L): 100%
- inhibition at 8 µg/mL ([1]; ATM 32 mg/L): 100%
- inhibition at 8 µg/mL ([1]; ATM 64 mg/L): 100%
- inhibition at 16 µg/mL ([1]; ATM 0.5 mg/L): 0%
- inhibition at 16 µg/mL ([1]; ATM 1 mg/L): 0%
- inhibition at 16 µg/mL ([1]; ATM 2 mg/L): 13%
- inhibition at 16 µg/mL ([1]; ATM 4 mg/L): 67%
- inhibition at 16 µg/mL ([1]; ATM 8 mg/L): 93%
- inhibition at 16 µg/mL ([1]; ATM 16 mg/L): 100%
- inhibition at 16 µg/mL ([1]; ATM 32 mg/L): 100%
- inhibition at 16 µg/mL ([1]; ATM 64 mg/L): 100%
- inhibition at 32 µg/mL ([1]; ATM 0.5 mg/L): 0%
- inhibition at 32 µg/mL ([1]; ATM 1 mg/L): 0%
- inhibition at 32 µg/mL ([1]; ATM 2 mg/L): 20%
- inhibition at 32 µg/mL ([1]; ATM 4 mg/L): 80%
- inhibition at 32 µg/mL ([1]; ATM 8 mg/L): 93%
- inhibition at 32 µg/mL ([1]; ATM 16 mg/L): 100%
- inhibition at 32 µg/mL ([1]; ATM 32 mg/L): 100%
- inhibition at 32 µg/mL ([1]; ATM 64 mg/L): 100%
- inhibition at 64 µg/mL ([1]; ATM 0.5 mg/L): 0%
- inhibition at 64 µg/mL ([1]; ATM 1 mg/L): 7%
- inhibition at 64 µg/mL ([1]; ATM 2 mg/L): 27%
- inhibition at 64 µg/mL ([1]; ATM 4 mg/L): 87%
- inhibition at 64 µg/mL ([1]; ATM 8 mg/L): 93%
- inhibition at 64 µg/mL ([1]; ATM 16 mg/L): 100%
- inhibition at 64 µg/mL ([1]; ATM 32 mg/L): 100%
- inhibition at 64 µg/mL ([1]; ATM 64 mg/L): 100%
- MIC50 [1, 5]: 16 mg/L (≈ 35.7 µM)
- MIC50 [1, 6]: 16 mg/L (≈ 35.7 µM)
- MIC50 [1, 7]: 8 mg/L (≈ 17.8 µM)
- MIC50 [1, 8]: 8 mg/L (≈ 17.8 µM)
- MIC50 [1, 9]: 4 mg/L (≈ 8.92 µM)
- MIC50 [1, 10]: 4 mg/L (≈ 8.92 µM)
- MIC50 [1, 11]: 4 mg/L (≈ 8.92 µM)
- MIC90 [1, 12]: 32 mg/L (≈ 71.4 µM)
- MIC90 [1, 13]: 32 mg/L (≈ 71.4 µM)
- MIC90 [1, 14]: 16 mg/L (≈ 35.7 µM)
- MIC90 [1, 15]: 16 mg/L (≈ 35.7 µM)
- MIC90 [1, 16]: 16 mg/L (≈ 35.7 µM)
- MIC90 [1, 17]: 16 mg/L (≈ 35.7 µM)
- MIC90 [1, 18]: 16 mg/L (≈ 35.7 µM)
- MIC50 [2, 5]: 4 mg/L (≈ 8.92 µM)
- MIC50 [2, 6]: 2 mg/L (≈ 4.46 µM)
- MIC50 [2, 7]: 2 mg/L (≈ 4.46 µM)
- MIC50 [2, 8]: 2 mg/L (≈ 4.46 µM)
- MIC50 [2, 9]: 1 mg/L (≈ 2.23 µM)
- MIC50 [2, 10]: 1 mg/L (≈ 2.23 µM)
- MIC50 [2, 11]: 1 mg/L (≈ 2.23 µM)
- MIC90 [2, 12]: 8 mg/L (≈ 17.8 µM)
- MIC90 [2, 13]: 4 mg/L (≈ 8.92 µM)
- MIC90 [2, 14]: 4 mg/L (≈ 8.92 µM)
- MIC90 [2, 15]: 2 mg/L (≈ 4.46 µM)
- MIC90 [2, 16]: 2 mg/L (≈ 4.46 µM)
- MIC90 [2, 17]: 2 mg/L (≈ 4.46 µM)
- MIC90 [2, 18]: 2 mg/L (≈ 4.46 µM)
- Diff. (ATM + 5, 24 h vs initial inoculum) ([3]; ATM 1/2 MIC + 5 at 8 mg/L): −0.04 Log CFU/mL
- Diff. (ATM + 5 vs ATM only) ([3]; ATM 1/2 MIC + 5 at 8 mg/L): −3.51 Log CFU/mL
- Synergistic activity, interpretation ([3]; ATM 1/2 MIC + 5 at 8 mg/L): Synergy (a ≥ 2 log10 decrease in CFU/mL for the combination of ATM and 5 compared to ATM alone after 24 h of incubation)
- Log CFU/mL, ATM + 5 ([3]; ATM 1/2 MIC + 5 at 8 mg/L): 5.80 Log CFU/mL
- Diff. (ATM + 5, 24 h vs initial inoculum) ([3]; ATM 1/4 MIC + 5 at 8 mg/L): −0.04 Log CFU/mL
- Diff. (ATM + 5 vs ATM only) ([3]; ATM 1/4 MIC + 5 at 8 mg/L): −3.77 Log CFU/mL
- Synergistic activity, interpretation ([3]; ATM 1/4 MIC + 5 at 8 mg/L): Synergy (a ≥ 2 log10 decrease in CFU/mL for the combination of ATM and 5 compared to ATM alone after 24 h of incubation)
- Log CFU/mL, ATM + 5 ([3]; ATM 1/4 MIC + 5 at 8 mg/L): 5.80 Log CFU/mL
- Diff. (ATM + 5, 24 h vs initial inoculum) ([3]; ATM 1 MIC + 5 at 8 mg/L): −5.57 Log CFU/mL
- Diff. (ATM + 5 vs ATM only) ([3]; ATM 1 MIC + 5 at 8 mg/L): −7.75 Log CFU/mL
- Synergistic activity, interpretation ([3]; ATM 1 MIC + 5 at 8 mg/L): Synergy (a ≥ 2 log10 decrease in CFU/mL for the combination of ATM and 5 compared to ATM alone after 24 h of incubation)
- Log CFU/mL, ATM + 5 ([3]; ATM 1 MIC + 5 at 8 mg/L): 0.27 Log CFU/mL
- Diff. (ATM + 5, 24 h vs initial inoculum) ([3]; ATM 2 MIC + 5 at 8 mg/L): −5.84 Log CFU/mL
- Diff. (ATM + 5 vs ATM only) ([3]; ATM 2 MIC + 5 at 8 mg/L): −0.17 Log CFU/mL
- Log CFU/mL, ATM + 5 ([3]; ATM 2 MIC + 5 at 8 mg/L): 0.00 Log CFU/mL
- Vd ([4]; male, Sprague-Dawley, serum, Intravenous (5 mg/kg), read-out: Vss): 0.65 ± 0.09 L/kg
- Vd ([4]; male, Sprague-Dawley, serum, Intravenous (5 mg/kg), read-out: Vz): 1.84 ± 0.76 L/kg
- Vd ([4]; male, Sprague-Dawley, serum, intravenous 5 mg/kg, read-out: Vss): 0.65 L/kg
- AUC(0-inf) [4, 19]: 3.61 ± 0.59 µg·h/mL
- AUC(0-t) [4, 19]: 3.6 ± 0.59 µg·h/mL
- C0 [4, 19]: 11.1 ± 2.39 µg/mL
- half-life [4, 19]: 0.92 ± 0.42 h
- clearance ([4]; male, Sprague-Dawley, serum, Intravenous (5 mg/kg), read-out: Cl (systemic clearance)): 1.41 L/h/kg
- Cmax ([4]; male, Sprague-Dawley, serum, Intravenous (5 mg/kg), read-out: Cmax): 7.51 µg/mL
- MRT last [4, 19]: 0.45 ± 0.02 h
- MRT inf [4, 19]: 0.46 ± 0.02 h
- AUC(0-inf) [4, 20]: 1.28 ± 0.54 µg·h/mL
- AUC(0-t) [4, 20]: 1.25 ± 0.57 µg·h/mL
- Tmax [4, 20]: 2 h
- half-life [4, 20]: 1.28 ± 0.53 h
- Cmax ([4]; male, Sprague-Dawley, serum, Oral (10 mg/kg), read-out: Cmax): 0.29 ± 0.14 µg/mL
- bioavailability ([4]; male, Sprague-Dawley, serum, Oral (10 mg/kg), read-out: F (bioavailability)): 17.3 ± 7.88%
- MRT last [4, 20]: 2.87 ± 0.25 h
- MRT inf [4, 20]: 3.13 ± 0.35 h
- Cmax ([4]; Intravenous (5 mg/kg)): 7.51 ± 1.34 µg/mL
